From PubChem BioAssay AID248 (DTP/NCI, 2004)
“And” between values parts separate entries of the source, which are not always exact repeats. Equal values may be shown once. Toxic doses and inconclusive results are not listed. Cut-off read from the data, not from the text of the source: active = T/C of 150% or more; inactive = T/C below 125%.

Test system: L1210 leukemia ip in BDF1 mice, survival T/C
Assay: NCI In Vivo Anticancer Drug Screen. Data for tumor model L1210 Leukemia (intraperitoneal) in B6D2F1 (BDF1) mice
Conditions: endpoint: mean survival time, higher = longer survival
Procedure, shortened: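 Value reflects the ratio of survival in compound-treated mice to survival in vehicle-treated controls, with both groups carrying the same transplanted tumor.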

[1] = dose: 75.0 mg/kg/injection, schedule: Q01DX001 (ip), vehicle: carboxymethylcellulose (CMC)
[2] = dose: 100.0 mg/kg/injection, schedule: Q04DX002 (ip), vehicle: Klucel (hydroxypropylcellulose) (HPC)
[3] = dose: 150.0 mg/kg/injection, schedule: Q01DX001 (ip), vehicle: carboxymethylcellulose (CMC)
[4] = dose: 100.0 mg/kg/injection, schedule: Q01DX009 (ip), vehicle: Klucel (hydroxypropylcellulose) (HPC)
[5] = dose: 200.0 mg/kg/injection, schedule: Q01DX009 (ip), vehicle: Klucel (hydroxypropylcellulose) (HPC)
[6] = dose: 400.0 mg/kg/injection, schedule: Q01DX009 (ip), vehicle: Klucel (hydroxypropylcellulose) (HPC)
[7] = dose: 100.0 mg/kg/injection, schedule: Q04DX003 (ip), vehicle: Klucel (hydroxypropylcellulose) (HPC)
[8] = dose: 200.0 mg/kg/injection, schedule: Q04DX003 (ip), vehicle: Klucel (hydroxypropylcellulose) (HPC)
[9] = dose: 400.0 mg/kg/injection, schedule: Q04DX003 (ip), vehicle: Klucel (hydroxypropylcellulose) (HPC)
[10] = dose: 100.0 mg/kg/injection, schedule: Q04DX003 (ip), vehicle: saline with Tween-80
[11] = dose: 200.0 mg/kg/injection, schedule: Q04DX003 (ip), vehicle: saline with Tween-80
[12] = dose: 400.0 mg/kg/injection, schedule: Q04DX003 (ip), vehicle: saline with Tween-80
[13] = dose: 100.0 mg/kg/injection, schedule: Q01DX009 (ip), vehicle: saline
[14] = dose: 100.0 mg/kg/injection, schedule: Q04DX003 (ip), vehicle: saline
[15] = dose: 200.0 mg/kg/injection, schedule: Q01DX009 (ip), vehicle: saline
[16] = dose: 100.0 mg/kg/injection, schedule: Q01DX001 (ip), vehicle: saline

Measured: T/C

O=C1CC2CCCC(C1)S2
inactive: [1] 107 % of control | [2] 86 % of control | [3] 109 % of control | dose: 200.0 mg/kg/injection, schedule: Q04DX002 (ip), vehicle: Klucel (hydroxypropylcellulose) (HPC) 100 % of control | dose: 300.0 mg/kg/injection, schedule: Q01DX001 (ip), vehicle: carboxymethylcellulose (CMC) 102 % of control | dose: 400.0 mg/kg/injection, schedule: Q04DX002 (ip), vehicle: Klucel (hydroxypropylcellulose) (HPC) 86 % of control

Cc1ccc(NC(=O)Oc2ccc(C(C)(C)C)cc2)cc1NC(=O)Oc1ccc(C(C)(C)C)cc1
inactive: [4] 97 % of control | [5] 105 % of control | [6] 100 % of control

C1=C2CCCCC2OC1 (stereo not drawn)
inactive: [1] 97 % of control | [3] 98 % of control

CC(C)CC(N=C(NC(CC(C)C)C(=O)O)c1ccccc1)C(=O)O (stereo not drawn)
inactive: [4] 108 % of control | [5] 105 % of control | [6] 95 % of control

O=C(Nc1cccc2ccccc12)Nc1cccc2ccccc12
inactive: dose: 100.0 mg/kg/injection, schedule: Q01DX001 (ip), vehicle: carboxymethylcellulose (CMC) 95 % of control | dose: 200.0 mg/kg/injection, schedule: Q01DX001 (ip), vehicle: carboxymethylcellulose (CMC) 90 % of control | dose: 400.0 mg/kg/injection, schedule: Q01DX001 (ip), vehicle: carboxymethylcellulose (CMC) 92 % of control

CC(=O)Nc1ccc(S(=O)(=O)SC(Cl)(Cl)Cl)cc1
inactive: dose: 100.0 mg/kg/injection, schedule: Q01DX009 (ip), vehicle: gum acacia 99 % of control | dose: 200.0 mg/kg/injection, schedule: Q01DX009 (ip), vehicle: gum acacia 94 % of control | dose: 400.0 mg/kg/injection, schedule: Q01DX009 (ip), vehicle: gum acacia 99 % of control

CCCCCCCC(N)CC(=O)O (stereo not drawn)
inactive: [4] 105 % of control | [5] 97 % of control | [6] 107 % of control

NC(N)=N/N=C/c1cc(Br)ccc1O
inactive: dose: 75.0 mg/kg/injection, schedule: Q01DX001 (ip), vehicle: saline 102 % of control | dose: 150.0 mg/kg/injection, schedule: Q01DX001 (ip), vehicle: saline 98 % of control

CCOP(=O)(NC12CC3CC(CC(C3)C1)C2)OCC
inactive: [4] 97 % of control | [7] 93 % of control | [5] 94 % of control | [8] 98 % of control | [9] 90 % of control

O=C(OC1CC=CCC1)c1ccc([N+](=O)[O-])cc1 (stereo not drawn)
inactive: dose: 100.0 mg/kg/injection, schedule: Q01DX001 (ip), vehicle: Klucel (hydroxypropylcellulose) (HPC) 86 % of control | dose: 200.0 mg/kg/injection, schedule: Q01DX001 (ip), vehicle: Klucel (hydroxypropylcellulose) (HPC) 98 % of control | dose: 400.0 mg/kg/injection, schedule: Q01DX001 (ip), vehicle: Klucel (hydroxypropylcellulose) (HPC) 96 % of control

CC(=O)NS(=O)(=O)c1ccc(N=Cc2ccccc2O)cc1
inactive: [4] 101 % of control | [5] 94 % of control | [6] 100 % of control

COc1ccccc1C1(O)c2ccccc2Sc2cccc(OC)c21 (stereo not drawn)
inactive: [10] 104 % of control | [11] 95 % of control | [12] 98 % of control

O=C1NCCc2c1[nH]c1ccccc21
inactive: dose: 50.0 mg/kg/injection, schedule: Q01DX009 (ip), vehicle: saline 90 % of control | [13] 91 % of control | [14] 101 % of control | [15] 86 % of control | dose: 200.0 mg/kg/injection, schedule: Q04DX003 (ip), vehicle: saline 93 % of control

CC(C)C(C=O)(CCN1CCCCC1)c1cccc2ccccc12 (stereo not drawn)
inactive: dose: 25.0 mg/kg/injection, schedule: Q04DX002 (ip), vehicle: saline with Tween-80 98 % of control | dose: 50.0 mg/kg/injection, schedule: Q04DX002 (ip), vehicle: saline with Tween-80 98 % of control | dose: 100.0 mg/kg/injection, schedule: Q04DX002 (ip), vehicle: saline with Tween-80 88 % of control

C[C@@H]1C[C@@]2(C)C(=CC1=O)CC[C@@H]1C2=CC[C@@]2(C)[C@H]1CC[C@]2(C)O
inactive: [13] 100 % of control | dose: 100.0 mg/kg/injection, schedule: Q04DX003 (ip), vehicle: alcohol 103 % of control | [15] 100 % of control | dose: 200.0 mg/kg/injection, schedule: Q04DX003 (ip), vehicle: alcohol 103 % of control | dose: 400.0 mg/kg/injection, schedule: Q01DX009 (ip), vehicle: saline 100 % of control | dose: 400.0 mg/kg/injection, schedule: Q04DX003 (ip), vehicle: alcohol 97 % of control

Cc1ccc(S(=O)(=O)N(CCCc2c(Cc3ccccc3)nc(N)[nH]c2=O)c2ccccc2)cc1
inactive: [4] 88 % of control | [7] 97 % of control and 105 % of control | [5] 93 % of control | [8] 113 % of control and 88 % of control | [6] 100 % of control | [9] 93 % of control

CCC(NC(=O)c1ccccc1)C(=O)O (stereo not drawn)
inactive: [7] 95 % of control | [8] 101 % of control | [9] 103 % of control

COc1ccc2c(cc1=O)CC=CC1CC(OC)C(OC)C(OC)C21 (stereo not drawn)
inactive: [10] 92 % of control | [11] 93 % of control | [12] 101 % of control

CCOC(=O)C(N)CS (stereo not drawn)
inactive: [16] 106 % of control | dose: 200.0 mg/kg/injection, schedule: Q01DX001 (ip), vehicle: saline 97 % of control | dose: 400.0 mg/kg/injection, schedule: Q01DX001 (ip), vehicle: saline 101 % of control

O=C(O)C1(c2ccccc2)OCCO1
inactive: dose: 100.0 mg/kg/injection, schedule: Q01DX009 (ip), vehicle: saline with Tween-80 95 % of control | dose: 200.0 mg/kg/injection, schedule: Q01DX009 (ip), vehicle: saline with Tween-80 94 % of control | dose: 400.0 mg/kg/injection, schedule: Q01DX009 (ip), vehicle: saline with Tween-80 95 % of control

CCCCN1CCN2C(=O)N(CC)CCC2C1 (stereo not drawn)
inactive: dose: 25.0 mg/kg/injection, schedule: Q04DX003 (ip), vehicle: saline 91 % of control | dose: 50.0 mg/kg/injection, schedule: Q04DX003 (ip), vehicle: saline 98 % of control | [16] 102 % of control | [14] 116 % of control

COc1ccc(OC(=O)OCc2ccccc2)cc1
inactive: [7] 101 % of control | [8] 101 % of control | [9] 109 % of control

Cc1cc(CSC2=NCCCN2)c(C)cc1CSC1=NCCCN1
inactive: dose: 1.56 mg/kg/injection, schedule: Q01DX009 (ip), vehicle: saline 88 % of control | dose: 3.13 mg/kg/injection, schedule: Q01DX009 (ip), vehicle: saline 103 % of control | dose: 6.25 mg/kg/injection, schedule: Q01DX009 (ip), vehicle: saline 92 % of control

CCCC(O)(CCC)CC1=NC(C)(C)CO1
inactive: dose: 100.0 mg/kg/injection, schedule: Q04DX003 (ip), vehicle: saline sonified 87 % of control | dose: 200.0 mg/kg/injection, schedule: Q04DX003 (ip), vehicle: saline sonified 98 % of control | dose: 400.0 mg/kg/injection, schedule: Q04DX003 (ip), vehicle: saline sonified 95 % of control

Cc1ccc2[nH]c(C)c(C3=CC(=O)c4ccccc4C3=O)c2c1
inactive: dose: 100.0 mg/kg/injection, schedule: Q01DX001 (ip), vehicle: other 97 % of control | dose: 200.0 mg/kg/injection, schedule: Q01DX001 (ip), vehicle: other 92 % of control

CC(=O)Nc1ccc2c(c1)-c1ccccc1C2=O
inactive: [10] 98 % of control | [11] 100 % of control | [12] 98 % of control

COC(=O)N1C(c2ccccc2)CS1(=O)=O (stereo not drawn)
inactive: dose: 25.0 mg/kg/injection, schedule: Q04DX002 (ip), vehicle: Klucel (hydroxypropylcellulose) (HPC) 106 % of control | dose: 50.0 mg/kg/injection, schedule: Q04DX002 (ip), vehicle: Klucel (hydroxypropylcellulose) (HPC) 113 % of control | [2] 97 % of control and 109 % of control

CSCc1cccc(CO)c1
inactive: dose: 100.0 mg/kg/injection, schedule: Q01DX009 (ip), vehicle: acetone 101 % of control | dose: 100.0 mg/kg/injection, schedule: Q04DX003 (ip), vehicle: acetone 98 % of control | dose: 200.0 mg/kg/injection, schedule: Q01DX009 (ip), vehicle: acetone 105 % of control | dose: 200.0 mg/kg/injection, schedule: Q04DX003 (ip), vehicle: acetone 106 % of control | dose: 400.0 mg/kg/injection, schedule: Q01DX009 (ip), vehicle: acetone 97 % of control | dose: 400.0 mg/kg/injection, schedule: Q04DX003 (ip), vehicle: acetone 109 % of control
